Measurements published in PubChem BioAssay AID330 (DTP/NCI, 2004).
Values joined by “and” are separate entries in the source; they are usually repeats but may differ in a detail not shown here. Equal entries are not always repeated. Toxic doses and inconclusive results are not listed.

System: P388 leukemia ip, CD2F1 mice, survival T/C
Experiment: NCI In Vivo Anticancer Drug Screen. Data for tumor model P388 Leukemia (intraperitoneal) in CD2F1 (CDF1) mice
Details: endpoint: median survival time, higher = longer survival
Outline: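 Mice carrying the transplanted tumor received test compound or vehicle. Survival was recorded in each group, and the value is the treated-group measurement divided by that of the vehicle-treated control group.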

[1] = dose: 50.0 mg/kg/injection, schedule: Q01DX009 (ip), vehicle: saline with Tween-80
[2] = dose: 100.0 mg/kg/injection, schedule: Q01DX009 (ip), vehicle: saline with Tween-80
[3] = dose: 200.0 mg/kg/injection, schedule: Q01DX009 (ip), vehicle: saline with Tween-80
[4] = dose: 50.0 mg/kg/injection, schedule: Q01DX005 (ip), vehicle: saline with Tween-80
[5] = dose: 100.0 mg/kg/injection, schedule: Q01DX005 (ip), vehicle: saline with Tween-80
[6] = dose: 200.0 mg/kg/injection, schedule: Q01DX005 (ip), vehicle: saline with Tween-80
[7] = dose: 50.0 mg/kg/injection, schedule: Q01DX005 (ip), vehicle: saline
[8] = dose: 100.0 mg/kg/injection, schedule: Q01DX005 (ip), vehicle: saline
[9] = dose: 200.0 mg/kg/injection, schedule: Q01DX005 (ip), vehicle: saline
[10] = dose: 50.0 mg/kg/injection, schedule: Q01DX005 (ip), vehicle: Klucel (hydroxypropylcellulose) (HPC)
[11] = dose: 100.0 mg/kg/injection, schedule: Q01DX005 (ip), vehicle: Klucel (hydroxypropylcellulose) (HPC)
[12] = dose: 60.0 mg/kg/injection, schedule: Q01DX005 (ip), vehicle: saline with Tween-80
[13] = dose: 120.0 mg/kg/injection, schedule: Q01DX005 (ip), vehicle: saline with Tween-80
[14] = dose: 240.0 mg/kg/injection, schedule: Q01DX005 (ip), vehicle: saline with Tween-80
[15] = dose: 25.0 mg/kg/injection, schedule: Q01DX009 (ip), vehicle: distilled water + Tween-80
[16] = dose: 50.0 mg/kg/injection, schedule: Q01DX009 (ip), vehicle: distilled water + Tween-80
[17] = dose: 100.0 mg/kg/injection, schedule: Q01DX009 (ip), vehicle: distilled water + Tween-80
[18] = dose: 100.0 mg/kg/injection, schedule: Q04DX003 (ip), vehicle: saline
[19] = dose: 12.5 mg/kg/injection, schedule: Q01DX005 (ip), vehicle: Klucel (hydroxypropylcellulose) (HPC)
[20] = dose: 25.0 mg/kg/injection, schedule: Q01DX005 (ip), vehicle: Klucel (hydroxypropylcellulose) (HPC)

With CCOC(=O)c1ccc(N(CCOS(C)(=O)=O)CCOS(C)(=O)=O)cc1 the T/C [1] was 190 % of control, the T/C [2] was 215 % of control and the T/C (dose: 100.0 mg/kg/injection, schedule: Q04DX003 (ip), vehicle: saline with Tween-80) was 154 % of control. The T/C (dose: 132.0 mg/kg/injection, schedule: Q04DX003 (ip), vehicle: saline with Tween-80) was 186 % of control, the T/C [3] was 95 % of control and the T/C (dose: 200.0 mg/kg/injection, schedule: Q04DX003 (ip), vehicle: saline with Tween-80) was 150 % of control and 195 % of control. For the same molecule, the T/C (dose: 300.0 mg/kg/injection, schedule: Q04DX003 (ip), vehicle: saline with Tween-80) was 172 % of control.
CN1C(=O)n2c(nc3ccccc32)C(N2CCOCC2)(N2CCOCC2)C1=O was tested, and the T/C (dose: 100.0 mg/kg/injection, schedule: Q01DX001 (ip), vehicle: saline with Tween-80) was 103 % of control, the T/C (dose: 200.0 mg/kg/injection, schedule: Q01DX001 (ip), vehicle: saline with Tween-80) was 96 % of control and the T/C (dose: 400.0 mg/kg/injection, schedule: Q01DX001 (ip), vehicle: saline with Tween-80) was 89 % of control.
O=C(O)CSC(=S)CCCCCCCCCCC(=S)SCC(=O)O was tested, and the T/C (dose: 12.5 mg/kg/injection, schedule: Q01DX005 (ip), vehicle: saline with Tween-80) was 111 % of control, the T/C (dose: 25.0 mg/kg/injection, schedule: Q01DX005 (ip), vehicle: saline with Tween-80) was 109 % of control and the T/C [4] was 116 % of control and 118 % of control.
With CC1(C)OC(=O)C=C1Sc1ccccc1 the T/C [4] was 100 % of control, the T/C [5] was 105 % of control and the T/C [6] was 105 % of control.
For CC(C)CN=C1NS(=O)(=O)c2ccccc21, the T/C [4] was 100 % of control, the T/C [5] was 101 % of control and the T/C [6] was 101 % of control.
For CCn1c2ccccc2c2ccc(N=Cc3ccc(N(C)C)cc3)cc21, the T/C (dose: 50.0 mg/kg/injection, schedule: Q01DX009 (ip), vehicle: Klucel (hydroxypropylcellulose) (HPC)) was 89 % of control, the T/C (dose: 100.0 mg/kg/injection, schedule: Q01DX009 (ip), vehicle: Klucel (hydroxypropylcellulose) (HPC)) was 94 % of control and the T/C (dose: 200.0 mg/kg/injection, schedule: Q01DX009 (ip), vehicle: Klucel (hydroxypropylcellulose) (HPC)) was 103 % of control.
With O=C1OCC2OCCC12 (stereo not drawn) the T/C [7] was 100 % of control, the T/C [8] was 100 % of control and the T/C [9] was 101 % of control.
With Nc1ncc2c(n1)Oc1cc3nc4c(=O)nc(N)nc-4oc3cc1N2 the T/C [10] was 91 % of control and the T/C [11] was 93 % of control.
With COc1cc(C(c2cc3c(cc2OC(C)=O)OCO3)C(C(C)=O)C(C)=O)cc(OC)c1OC (stereo not drawn) the T/C [12] was 106 % of control, the T/C [13] was 98 % of control and the T/C [14] was 121 % of control.
With Nc1ccc(S(=O)(=O)NC(CSSCC(NS(=O)(=O)c2ccc(N)cc2)C(=O)O)C(=O)O)cc1 (stereo not drawn) the T/C [10] was 110 % of control, the T/C [11] was 101 % of control and the T/C (dose: 200.0 mg/kg/injection, schedule: Q01DX005 (ip), vehicle: Klucel (hydroxypropylcellulose) (HPC)) was 113 % of control.
CNC(=S)N/N=C/Cn1ccc(=O)[nH]c1=O was tested, and the T/C [10] was 89 % of control and the T/C [11] was 90 % of control.
For Nc1cc(=O)[nH]c(=S)[nH]1.[Pd], the T/C (dose: 12.5 mg/kg/injection, schedule: Q01DX009 (ip), vehicle: distilled water + Tween-80) was 108 % of control, the T/C [15] was 97 % of control and the T/C [16] was 100 % of control. For the same molecule, the T/C [17] was 95 % of control and the T/C (dose: 200.0 mg/kg/injection, schedule: Q01DX009 (ip), vehicle: distilled water + Tween-80) was 105 % of control.
Cc1ccccc1C(=O)Nc1ccccc1-c1ccccc1N was tested, and the T/C (dose: 25.0 mg/kg/injection, schedule: Q04DX003 (ip), vehicle: saline) was 95 % of control, the T/C (dose: 50.0 mg/kg/injection, schedule: Q04DX003 (ip), vehicle: saline) was 99 % of control and the T/C [18] was 90 % of control and 91 % of control.
For Cc1ccc2ccc3ccc(CBr)nc3c2n1, the T/C (dose: 3.12 micromoles/kg, schedule: Q01DX005 (ip), vehicle: other) was 110 % of control, the T/C (dose: 6.25 micromoles/kg, schedule: Q01DX005 (ip), vehicle: other) was 99 % of control and the T/C (dose: 12.0 micromoles/kg, schedule: Q01DX005 (ip), vehicle: other) was 111 % of control.
COC(=O)c1nc(SC)[nH]c1CC(N)=O was tested, and the T/C [12] was 101 % of control, the T/C [13] was 100 % of control and the T/C [14] was 96 % of control.
With O=C1C=CCC12CC=CC2=O the T/C (dose: 6.25 mg/kg/injection, schedule: Q01DX001 (ip), vehicle: Klucel (hydroxypropylcellulose) (HPC)) was 100 % of control and 105 % of control, the T/C (dose: 12.5 mg/kg/injection, schedule: Q01DX001 (ip), vehicle: Klucel (hydroxypropylcellulose) (HPC)) was 117 % of control and 94 % of control and the T/C (dose: 25.0 mg/kg/injection, schedule: Q01DX001 (ip), vehicle: Klucel (hydroxypropylcellulose) (HPC)) was 100 % of control and 123 % of control.
With COC(=O)C(Cc1cnc2nc(N)nc(N)c2n1)C(=O)OC the T/C [15] was 104 % of control, the T/C [16] was 104 % of control and the T/C [17] was 122 % of control.
In the case of C=CCN(NC(=O)c1ccccc1)C(=O)c1ccccc1, the T/C [18] is reported as 105 % of control, the T/C (dose: 200.0 mg/kg/injection, schedule: Q04DX003 (ip), vehicle: saline) is reported as 100 % of control and the T/C (dose: 400.0 mg/kg/injection, schedule: Q04DX003 (ip), vehicle: saline) is reported as 110 % of control.
With Nc1nnc(-c2ccc(Cl)cc2)o1 the T/C [12] was 100 % of control, the T/C [13] was 110 % of control and the T/C [14] was 103 % of control.
In the case of COCC/C=C\CN(C(C)C)C(C)C, the T/C [1] is reported as 99 % of control and the T/C [2] is reported as 101 % of control.
With CCN(CC)Cc1cc(C)c(O)c(N=Nc2ccc3ccc4cccc5ccc2c3c45)c1C the T/C (dose: 12.5 mg/kg/injection, schedule: Q01DX009 (ip), vehicle: saline with Tween-80) was 94 % of control, the T/C (dose: 25.0 mg/kg/injection, schedule: Q01DX009 (ip), vehicle: saline with Tween-80) was 87 % of control and the T/C [1] was 99 % of control and 122 % of control and 90 % of control. For the same molecule, the T/C [2] was 105 % of control and 118 % of control and 94 % of control, the T/C [3] was 100 % of control and 105 % of control and the T/C (dose: 400.0 mg/kg/injection, schedule: Q01DX009 (ip), vehicle: saline with Tween-80) was 107 % of control.
In the case of CC(NC(=O)C1CCCN1C(=O)OCc1ccccc1)C(=O)O (stereo not drawn), the T/C [4] is reported as 106 % of control, the T/C [5] is reported as 100 % of control and the T/C [6] is reported as 100 % of control.
For CN(C)c1ccc(Cc2ccc(N(C)C)c(C(O)(c3ccccc3)c3ccccc3)c2)cc1C(O)(c1ccccc1)c1ccccc1, the T/C (dose: 1.56 mg/kg/injection, schedule: Q01DX005 (ip), vehicle: saline) was 100 % of control, the T/C (dose: 3.13 mg/kg/injection, schedule: Q01DX005 (ip), vehicle: saline) was 97 % of control and the T/C (dose: 6.25 mg/kg/injection, schedule: Q01DX005 (ip), vehicle: saline) was 90 % of control.
With Cc1cc(N/N=C/c2ccc3c(c2)OCO3)c2cc3c(cc2n1)OCO3 the T/C (dose: 3.12 mg/kg/injection, schedule: Q01DX005 (ip), vehicle: Klucel (hydroxypropylcellulose) (HPC)) was 104 % of control, the T/C (dose: 6.25 mg/kg/injection, schedule: Q01DX005 (ip), vehicle: Klucel (hydroxypropylcellulose) (HPC)) was 95 % of control and the T/C [19] was 102 % of control and 95 % of control. For the same molecule, the T/C [20] was 107 % of control and 114 % of control and the T/C [10] was 103 % of control.
In the case of Cc1cc2[n-]c1/C=c1\[n-]/c(c(CCC(=O)O)c1C)=C\c1[n-]c(c(C)c1CCC(=O)O)/C=c1/cc(C)/c([n-]1)=C/2.[Co], the T/C [19] is reported as 98 % of control, the T/C [20] is reported as 101 % of control and 97 % of control and the T/C [10] is reported as 106 % of control.
With Cc1ccc(S(=O)(=O)C(=S)N(C)N(C)C)cc1 the T/C (dose: 12.5 mg/kg/injection, schedule: Q01DX009 (ip), vehicle: Klucel (hydroxypropylcellulose) (HPC)) was 115 % of control and the T/C (dose: 25.0 mg/kg/injection, schedule: Q01DX009 (ip), vehicle: Klucel (hydroxypropylcellulose) (HPC)) was 117 % of control.
CCC(=O)Cc1nc2nnc(N)n2nc1CC(=O)CC was tested, and the T/C [7] was 100 % of control, the T/C [8] was 107 % of control and the T/C [9] was 98 % of control.
